Data taken from patent publication US20030175678A1, “Methods for identifying genes regulating desired cell phenotypes” (priority 2001, published 2003).

Legend:
[1] = test system: C. dejecta suspension culture; experiment: Differential induction of catechin accumulation in Crassula dejecta suspension culture; type: cell-based
Protocol: Differential induction of catechin derivatives in the C. dejecta suspension culture was performed in 250 mL conical flasks containing 100 mL of B105 growth medium or 100 mL of a secondary metabolite production medium B49 (Gamborg's B5, with 5% sucrose, and no hormones), inoculated with 40 mL of 21 day old suspension culture. The cultures were incubated under low light conditions (approximately 30 lux) at 25° C. Cultures were treated using one of each of the following protocols:
(1) B105 growth medium (no additions) used as is;
(3) Filter-sterilized aqueous zeatin (10 μM) was added at day 7 to a culture grown on B105 medium;
(4) B49 production medium (no additions) used as is;
(6) Filter-sterilized clofibrate (0.5 mM final concentration) was added at day 7 to a culture grown on B49 medium. Ten milliliters of culture samples were taken at regular intervals for 17 days following the day of subculture to B105 or B49 medium. All culture samples were centrifuged for five minutes at 4000 rpm, and the cell residue was freeze-dried. Extraction, sample preparation, and HPLC analysis were performed as described in Example 1.

terpene cyclase = experiment: RT-PCR of terpene cyclase in Ajuga reptans cultures; type: cell-based; settings: 24 hours after treatment
Protocol: To investigate the pattern of regulation of the terpene cyclase identified as described above, primers were synthesized that corresponded to sequence at each end of the RACE fragment. Ajuga reptans cultures were subject to the treatments described above, and RNA collected eight and 24 hours after treatment. RT-PCR was carried out using an […]™ One-Step RT-PCR kit (Clontech Laboratories, Palo Alto, Calif.). […] The primers also appear to be amplifying a constitutive cyclase.

PAL, CHS, and F3-OH = experiment: Quantitative RT-PCR of PAL, CHS and F3-OH transcripts in C. barkleyi cells; type: cell-based, Crassula barkleyi; settings: after 24 hours of treatment, relative to TBP
Protocol: Differential induction of mRNA transcripts associated with the synthesis of catechin derivatives in the C. barkleyi suspension culture (as described in Example 2) and the C. dejecta suspension culture (as described in Example 3) were performed in 250 mL conical flasks containing 100 mL of a secondary metabolite production medium B49 (Gamborg's B5, 5% sucrose, no hormones), inoculated with 16 mL of a 14 day old suspension culture (C. barkleyi) or 40 mL of a 21 day old suspension culture (C. dejecta). The cultures were incubated under low light conditions (approximately 30 lux) at 25° C.
Induction of mRNA usually occurs within 48 hours of receipt of an inducing signal. Accordingly, samples were taken at intervals of 2, 4, 6, 10, 15, 24, and 48 hours following the above treatments. Samples, sufficient to give at least 1 mL packed cell volume, were centrifuged for five minutes at 4000 rpm and the supernatant removed. […]
This mixture was incubated at 42° C. for 50 min then denatured at 70° C. for 15 min and stored at −20° C., after a thirty-fold dilution with distilled water. An aliquot of this reaction was then used to quantify the relative abundance of each of the three genes (PAL, CHS, F3-OH) to the invariant one (TBP), using a real time quantification PCR machine (Perkin Elmer 7700) and the previously described oligonucleotides (shown in FIG. 7) in the following conditions: […]

## CC/C=C\CC1C(=O)CCC1CC(=O)OC (stereo not shown) [methyl jasmonate]
[1]; cultures grown on both B105 and B49 media, added at day 7
  induction of EGCG and other catechins: induced EGCG and other catechins
[1]; on B49, methyl jasmonate added at day 7
  accumulation of EGCG: ten-fold
Terpene cyclase
  induction of terpene cyclase (RT-PCR): induced
PAL, CHS, and F3-OH
  induction of transcription of PAL, CHS, and F3-OH: at least twenty fold
